According to patent US20240158446A1, “CYCLIC COMPOUND HAVING SELECTIVE INHIBITORY ACTION ON KRAS OVER HRAS AND NRAS” (CHUGAI SEIYAKU KABUSHIKI KAISHA, priority 2021, published 2024):
Like-named read-outs stand apart in the source and are kept apart here. *1 amine or outer side, *2 acyl side, *3 side chain or, on linkers, in order; H or OH if unused. Where a SMILES comes first, the peptide text is derived from it. Bridges are numbered along the chain shown (N, C = ends). [ ]: non-standard residue; d: D form. The star is where a group is joined. hPhe(3,5-F2-4-CF3) = N[C@@H](CCc1cc(F)c(C(F)(F)F)c(F)c1)C(=O)O; hPhe(3-Cl-4-CF3) = N[C@@H](CCc1ccc(C(F)(F)F)c(Cl)c1)C(=O)O; NPrPhe(4-CF3) = CCCN[C@@H](Cc1ccc(C(F)(F)F)cc1)C(=O)O; NEtPhe(4-CF3) = CCN[C@@H](Cc1ccc(C(F)(F)F)cc1)C(=O)O; Abu(4,4,4-F3) = N[C@@H](CC(F)(F)F)C(=O)O; NMeGly(cPent) = CN[C@H](C(=O)O)C1CCCC1; X11 = CCC[C@](C)(N[*:1])C(=O)[*:2]; αMeF = C[C@](N)(Cc1ccccc1)C(=O)O; NMeD = CN[C@@H](CC(=O)O)C(=O)O; NMeL = CN[C@@H](CC(C)C)C(=O)O; Morpholide = C1CN(*)CCO1; NMeA = CN[C@@H](C)C(=O)O; Pyrrolidide = C1CCN(*)C1; Ac5c = NC1(C(=O)O)CCCC1; Aze = O=C(O)[C@@H]1CCN1; Ac3c = NC1(C(=O)O)CC1; NPrGly = CCCNCC(=O)O; Sar = CNCC(=O)O

Experiments:
[1] = biological target: GDP-bound HRAS wild-type protein (Homo sapiens, UniProt P01112); assay: Binding to HRAS by surface plasmon resonance (SPR), Single Cycle Kinetics; settings: for HRAS/KRAS (ratio of KD value for HRAS to KD value for KRAS) / HRAS/KRAS (ratio of KD value with respect to HRAS to KD value with respect to KRAS): SPR, GDP-bound HRAS wild-type protein vs GDP-bound KRAS wild-type protein
[2] = biological target: GDP-bound NRAS wild-type protein (Homo sapiens, UniProt P01111); assay: Binding to NRAS by surface plasmon resonance (SPR), Single Cycle Kinetics; settings: for NRAS/KRAS (ratio of KD value for NRAS to KD value for KRAS) / NRAS/KRAS (ratio of KD value with respect to NRAS to KD value with respect to KRAS): SPR, GDP-bound NRAS wild-type protein vs GDP-bound KRAS wild-type protein
[3] = biological target: GDP-bound KRAS wild-type protein (Homo sapiens, UniProt P01116); assay: Binding to KRAS by surface plasmon resonance (SPR), Single Cycle Kinetics; settings: GDP-bound KRAS wild-type protein, read-out: KRAS KD
[4] = SPR Single Cycle Kinetics, 1:1 binding model

Chain of GDP-bound HRAS wild-type protein (P01112 whole entry): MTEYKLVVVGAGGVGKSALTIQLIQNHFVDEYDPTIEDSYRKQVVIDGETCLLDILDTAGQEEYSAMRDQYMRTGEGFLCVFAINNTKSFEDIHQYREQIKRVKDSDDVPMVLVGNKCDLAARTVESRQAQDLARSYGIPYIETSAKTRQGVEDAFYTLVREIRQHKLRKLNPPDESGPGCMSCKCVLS
Chain of GDP-bound KRAS wild-type protein (P01116 whole entry): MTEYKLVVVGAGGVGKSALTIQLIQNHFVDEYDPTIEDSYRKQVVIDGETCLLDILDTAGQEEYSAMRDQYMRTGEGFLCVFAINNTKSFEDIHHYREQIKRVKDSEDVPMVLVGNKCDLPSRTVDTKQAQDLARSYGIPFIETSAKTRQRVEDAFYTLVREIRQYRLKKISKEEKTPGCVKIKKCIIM
Chain of GDP-bound NRAS wild-type protein (P01111 whole entry): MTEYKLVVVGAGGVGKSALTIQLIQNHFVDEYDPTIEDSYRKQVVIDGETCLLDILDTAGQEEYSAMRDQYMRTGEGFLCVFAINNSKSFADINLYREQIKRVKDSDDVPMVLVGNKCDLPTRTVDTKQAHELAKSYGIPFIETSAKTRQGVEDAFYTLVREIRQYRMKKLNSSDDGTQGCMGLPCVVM

SMILES	Kd [3, 4]	Kd ([3]; SPR, Single Cycle Kinetics)	HRAS/KRAS (ratio of KD value for HRAS to KD value for KRAS) [1]	NRAS/KRAS (ratio of KD value for NRAS to KD value for KRAS) [2]	HRAS/KRAS (ratio of KD value with respect to HRAS to KD value with respect to KRAS) [1]	NRAS/KRAS (ratio of KD value with respect to NRAS to KD value with respect to KRAS) [2]	HRAS/KRAS (ratio of KD value with respect to GDP-bound HRAS wild-type protein to KD value with respect to KRAS) ([1]; SPR KD ratio HRAS/KRAS, class symbols)	NRAS/KRAS (ratio of KD value with respect to GDP-bound NRAS wild-type protein to KD value with respect to KRAS) ([2]; SPR KD ratio NRAS/KRAS, class symbols)
CC[C@H](C)[C@@H]1NC(=O)[C@H](COC)N(C)C(=O)C[C@@H](C(=O)N2CCOCC2)N(C)C(=O)[C@H](C2CCCC2)N(C)C(=O)C2(CCC2)NC(=O)[C@@H]2C[C@H](OC)CN2C(=O)[C@H](CCc2cc(F)c(C(F)(F)F)c(F)c2)NC(=O)CN(C)C(=O)[C@H](Cc2ccc(C(F)(F)F)cc2)N2CCCCC[C@@H](C2=O)N(C)C(=O)CN(C)C1=O [PP0836]		0.63 nM	B (a compound having 3 or more and less than 10 is denoted as B)	B (a compound having 3 or more and less than 10 is denoted as B)				
CCCN1C(=O)CN(C)C(=O)CN(C)C(=O)[C@H]([C@@H](C)CC)NC(=O)[C@H](CC(C)C)N(C)C(=O)C[C@@H](C(=O)N(C)C)N(C)C(=O)[C@H](C2CCCC2)N(C)C(=O)[C@](C)(Cc2ccccc2)NC(=O)[C@@H]2CCCN2C(=O)[C@H](CCc2cc(F)c(C(F)(F)F)c(F)c2)NC(=O)CN(C)C(=O)[C@@H]1Cc1ccc(C(F)(F)F)cc1 [PP0740] ([NMeL]I[Sar][Sar][NPrPhe(4-CF3)][Sar][hPhe(3,5-F2-4-CF3)]P[αMeF][NMeGly(cPent)][NMeD]-NMe2; lactam N-11)	0.47 nM				C (A compound having a KD ratio of 0.1 or more and less than 3 is denoted as C)	B (a compound having 3 or more and less than 10 is denoted as B)		
CCCN1C(=O)CN(C)C(=O)CN(C)C(=O)[C@H]([C@@H](C)CC)NC(=O)[C@H](CC(C)C)N(C)C(=O)C[C@@H](C(=O)N2CCOCC2)N(C)C(=O)[C@H](C2CCCC2)N(C)C(=O)[C@](C)(CCC)NC(=O)[C@@H]2CCCN2C(=O)[C@H](CCc2cc(F)c(C(F)(F)F)c(F)c2)NC(=O)CN(C)C(=O)[C@@H]1Cc1ccc(C(F)(F)F)cc1 [PP0758] ([NMeL]I[Sar][Sar][NPrPhe(4-CF3)][Sar][hPhe(3,5-F2-4-CF3)]P[X11][NMeGly(cPent)][NMeD]-Morpholide; lactam N-11)	1.6 nM				C (A compound having a KD ratio of 0.1 or more and less than 3 is denoted as C)	B (a compound having 3 or more and less than 10 is denoted as B)		
CCC[C@H]1C(=O)N[C@@H]([C@@H](C)CC)C(=O)N(C)CC(=O)N(C)[C@H]2C/C=C\CCN(C2=O)[C@@H](Cc2ccc(C)cc2)C(=O)N(C)CC(=O)N[C@@H](CCc2ccc3sc(C)c(C)c3c2)C(=O)N2C[C@H](OCC)C[C@H]2C(=O)NC2(CC(C)(C)C2)C(=O)N(C)[C@@H](C(CC)CC)C(=O)N(C)[C@H](C(=O)N(C)C)CC(=O)N1C [PP2902]	0.71 nM						A (a compound having 10 or more and less than 20 is denoted as A)	AA (a compound having 20 or more is denoted as AA)

Second part, led by results:

Kd [3, 4]	Kd ([3]; SPR, Single Cycle Kinetics)	SMILES	HRAS/KRAS (ratio of KD value for HRAS to KD value for KRAS) [1]	NRAS/KRAS (ratio of KD value for NRAS to KD value for KRAS) [2]	HRAS/KRAS (ratio of KD value with respect to HRAS to KD value with respect to KRAS) [1]	NRAS/KRAS (ratio of KD value with respect to NRAS to KD value with respect to KRAS) [2]	HRAS/KRAS (ratio of KD value with respect to GDP-bound HRAS wild-type protein to KD value with respect to KRAS) ([1]; SPR KD ratio HRAS/KRAS, class symbols)	NRAS/KRAS (ratio of KD value with respect to GDP-bound NRAS wild-type protein to KD value with respect to KRAS) ([2]; SPR KD ratio NRAS/KRAS, class symbols)
0.35 nM		CC[C@H](C)[C@@H]1NC(=O)[C@H](CC(C)C)N(C)C(=O)C[C@@H](C(=O)N2CCOCC2)N(C)C(=O)[C@H](C2CCCC2)N(C)C(=O)C2(CC2)NC(=O)[C@@H]2CCCN2C(=O)[C@H](CCc2ccc(C(F)(F)F)c(Cl)c2)NC(=O)CN(C)C(=O)[C@H](Cc2ccc(C(F)(F)F)cc2)N(CC)C(=O)[C@@H]2CCN2C(=O)[C@H](C)N(C)C1=O [PP0220] ([NMeL]I[NMeA][Aze][NEtPhe(4-CF3)][Sar][hPhe(3-Cl-4-CF3)]P[Ac3c][NMeGly(cPent)][NMeD]-Morpholide; lactam N-11)	C (A compound having a KD ratio of 0.1 or more and less than 3 is denoted as C)	C (A compound having a KD ratio of 0.1 or more and less than 3 is denoted as C)				
0.47 nM		CCCN1CC(=O)N2CC[C@H]2C(=O)N(CCC)[C@@H](Cc2ccc(C(F)(F)F)cc2)C(=O)N(C)CC(=O)N[C@@H](CCc2ccc(C(F)(F)F)c(Cl)c2)C(=O)N2CCC[C@H]2C(=O)NC2(CCCC2)C(=O)N(C)[C@@H](C2CCCC2)C(=O)N(C)[C@H](C(=O)N2CCOCC2)CC(=O)N(C)[C@@H](CC(C)C)C(=O)N[C@@H]([C@@H](C)CC)C1=O [PP0274] ([NMeL]I[NPrGly][Aze][NPrPhe(4-CF3)][Sar][hPhe(3-Cl-4-CF3)]P[Ac5c][NMeGly(cPent)][NMeD]-Morpholide; lactam N-11)	B (a compound having 3 or more and less than 10 is denoted as B)	C (A compound having a KD ratio of 0.1 or more and less than 3 is denoted as C)				
0.11 nM		CCCN1C(=O)[C@@H]2CCN2C(=O)[C@H](C)N(C)C(=O)[C@H]([C@@H](C)CC)NC(=O)[C@H](CC(C)C)N(C)C(=O)C[C@@H](C(=O)N2CCCC2)N(C)C(=O)[C@H](C2CCCC2)N(C)C(=O)C2(CCCC2)NC(=O)[C@@H]2CCCN2C(=O)[C@H](CCc2ccc(C(F)(F)F)c(Cl)c2)NC(=O)CN(C)C(=O)[C@@H]1Cc1ccc(C(F)(F)F)cc1 [PP0179] ([NMeL]I[NMeA][Aze][NPrPhe(4-CF3)][Sar][hPhe(3-Cl-4-CF3)]P[Ac5c][NMeGly(cPent)][NMeD]-Pyrrolidide; lactam N-11)	B (a compound having 3 or more and less than 10 is denoted as B)	C (A compound having a KD ratio of 0.1 or more and less than 3 is denoted as C)				
0.69 nM		CCCN1C(=O)CN(C)C(=O)CN(C)C(=O)[C@H](CC(F)(F)F)NC(=O)[C@H](CC(C)C)N(C)C(=O)C[C@@H](C(=O)N2CCOCC2)N(C)C(=O)[C@H](C2CCCC2)N(C)C(=O)C2(CCCC2)NC(=O)[C@@H]2CCCN2C(=O)[C@H](CCc2ccc(C(F)(F)F)c(Cl)c2)NC(=O)CN(C)C(=O)[C@@H]1Cc1ccc(C(F)(F)F)cc1 [PP0249] ([NMeL][Abu(4,4,4-F3)][Sar][Sar][NPrPhe(4-CF3)][Sar][hPhe(3-Cl-4-CF3)]P[Ac5c][NMeGly(cPent)][NMeD]-Morpholide; lactam N-11)	C (A compound having a KD ratio of 0.1 or more and less than 3 is denoted as C)	B (a compound having 3 or more and less than 10 is denoted as B)				
0.12 nM		CCCN1C(=O)[C@@H]2CCN2C(=O)CN(C)C(=O)[C@H]([C@@H](C)CC)NC(=O)[C@H](CC(C)C)N(C)C(=O)C[C@@H](C(=O)N2CCOCC2)N(C)C(=O)[C@H](C2CCCC2)N(C)C(=O)C2(CCCC2)NC(=O)[C@@H]2CCCN2C(=O)[C@H](CCc2ccc(C(F)(F)F)c(Cl)c2)NC(=O)CN(C)C(=O)[C@@H]1Cc1ccc(C(F)(F)F)cc1 [PP0156] ([NMeL]I[Sar][Aze][NPrPhe(4-CF3)][Sar][hPhe(3-Cl-4-CF3)]P[Ac5c][NMeGly(cPent)][NMeD]-Morpholide; lactam N-11)	B (a compound having 3 or more and less than 10 is denoted as B)	C (A compound having a KD ratio of 0.1 or more and less than 3 is denoted as C)				
